Source: patent US10882837B2, “Amide compounds and use thereof” (ALPHALA CO., LTD., priority 2017, dated 2021)

Experiments:
glucagon receptor (GCGR) = target: T1, glucagon receptor (GCGR) (Homo sapiens, UniProt P47871); assay: Glucagon cAMP inhibition assay (Cisbio cAMP Dynamic 2 HTRF); format: cell-based; details: GCGR overexpressed CHO-K1 cells or human primary hepatocytes (not specified); glucagon at EC50
T1 construct: expressed in transfected cells; host or cells: CHO-K1
Summary of the method: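 GCGR-overexpressing CHO-K1 cells or human primary hepatocytes in HBSS with 0.1% BSA and 800 nM IBMX, pre-incubated 30 min with compound (1% DMSO final), then stimulated 30 min at room temperature with glucagon at its EC50. cAMP measured by HTRF after 60 min lysis; IC50 from non-linear regression.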

GCGR = GCGR (Homo sapiens, UniProt P47871); assay: I125-glucagon binding assay (competition, GCGR membrane fractions); design: expressed in transfected cells; host or cells: CHO-K1; inhibition: dose or concentration left out as unconfirmed; details: for IC50: competition with I125-glucagon 0.0625 nM, membrane fractions from GCGR overexpressed CHO-K1 cells; for inhibition: read-out: percentage of inhibition (number in parenthesis in IC50 binding column)
Summary of the method: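 Membranes from CHO-K1 cells overexpressing GCGR (7.5 µg/well) were preincubated 5 min with serially diluted compound in 50 mM Tris pH 7.4, 0.5% BSA. I125-glucagon was then added at 0.0625 nM final and incubated 30 min at 25 °C. After filtration, bound radioactivity was counted and IC50 derived by non-linear regression.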

T1 sequence (P47871 26-477, species assumed): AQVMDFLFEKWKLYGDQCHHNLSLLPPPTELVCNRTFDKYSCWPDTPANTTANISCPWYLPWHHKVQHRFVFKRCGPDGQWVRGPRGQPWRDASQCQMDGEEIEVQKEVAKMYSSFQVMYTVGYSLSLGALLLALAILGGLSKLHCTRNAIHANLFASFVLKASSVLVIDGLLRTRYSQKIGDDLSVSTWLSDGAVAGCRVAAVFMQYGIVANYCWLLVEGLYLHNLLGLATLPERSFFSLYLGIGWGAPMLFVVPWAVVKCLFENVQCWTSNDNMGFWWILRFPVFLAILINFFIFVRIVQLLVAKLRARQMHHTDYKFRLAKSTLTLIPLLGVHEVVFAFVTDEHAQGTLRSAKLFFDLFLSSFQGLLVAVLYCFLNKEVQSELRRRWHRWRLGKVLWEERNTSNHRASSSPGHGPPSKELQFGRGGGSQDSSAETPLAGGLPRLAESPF
Sequence of GCGR (P47871 26-477, species assumed): as above

Compound	IC50 (glucagon receptor (GCGR)) [µM]	IC50 (GCGR) [µM]	inhibition (GCGR) [%]
O=C(O)CCNC(=O)c1ccc(NC(c2ccc(-c3noc(-c4ccccc4)n3)cc2)C2CCCC2)cc1 (stereo not shown) [Compound 2-15, 3-(4-((cyclopentyl(4-(5-phenyl-1,2,4-oxadiazol-3-yl)phenyl)methyl)amino)benzamido)propanoic acid]	0.45	0.106	
CCOC(=O)CCNC(=O)c1ccc(NC(c2ccc(-c3noc(-c4ccccc4)n3)cc2)C2CCCCC2)cc1 (stereo not shown) [Compound 2-16, ethyl 3-(4-((cyclohexyl(4-(5-phenyl-1,2,4-oxadiazol-3-yl)phenyl)methyl)amino)benzamido)propanoate]	0.438	0.178	
O=C(O)CCNC(=O)c1ccc(NC(c2ccc(-c3noc(-c4ccccc4)n3)cc2)C2CCCCC2)cc1 (stereo not shown) [Compound 2-17, 3-(4-((cyclohexyl(4-(5-phenyl-1,2,4-oxadiazol-3-yl)phenyl)methyl)amino)benzamido)propanoic acid]	0.511	0.054	
CC(C)[C@@H](Nc1ccc(C(=O)NCCC(=O)O)cc1)c1ccc(-c2noc(-c3ccccc3)n2)cc1 [Compound 2-23, (R)-3-(4-((2-methyl-1-(4-(5-phenyl-1,2,4-oxadiazol-3-yl)phenyl)propyl)amino)benzamido)propanoic acid]	1	0.537	
CCOC(=O)CCNC(=O)c1ccc(NC(c2ccc(-c3noc(-c4ccc(F)cc4)n3)cc2)C(C)C)cc1 (stereo not shown) [Compound 2-24, ethyl 3-(4-((1-(4-(5-(4-fluorophenyl)-1,2,4-oxadiazol-3-yl)phenyl)-2-methylpropyl)amino)benzamido)propanoate]	0.248	2.68	35
CC(C)C(Nc1ccc(C(=O)NCCC(=O)O)cc1)c1ccc(-c2noc(-c3ccc(F)cc3)n2)cc1 (stereo not shown) [Compound 2-25, 3-(4-((1-(4-(5-(4-fluorophenyl)-1,2,4-oxadiazol-3-yl)phenyl)-2-methylpropyl)amino)benzamido)propanoic acid]	1.19	0.058	
CC(C)C(Nc1ccc(C(=O)NCCC(=O)O)cc1)c1ccc(-c2noc(-c3ccccc3)n2)cc1 (stereo not shown) [Compound 2-26, 3-(4-((2-methyl-1-(4-(5-phenyl-1,2,4-oxadiazol-3-yl)phenyl)propyl)amino)benzamido)propanoic acid]	0.57	0.04	
CC(C)[C@H](Nc1ccc(C(=O)NCCC(=O)O)cc1)c1ccc(-c2noc(-c3ccccc3)n2)cc1 [Compound 2-28, (S)-3-(4-((2-methyl-1-(4-(5-phenyl-1,2,4-oxadiazol-3-yl)phenyl)propyl)amino)benzamido)propanoic acid]	0.295	0.029	
CCOC(=O)CCNC(=O)c1ccc(N[C@H](c2ccc(-c3noc(C(F)(F)F)n3)cc2)C(C)CC)cc1 (stereo partly drawn) [Compound 2-29, ethyl 3-(4-(((1S)-2-methyl-1-(4-(5-(trifluoromethyl)-1,2,4-oxadiazol-3-yl)phenyl)butyl)amino)benzamido)propanoate]	0.172	1.82	18
CCC(C)[C@H](Nc1ccc(C(=O)NCCC(=O)O)cc1)c1ccc(-c2noc(C(F)(F)F)n2)cc1 (stereo partly drawn) [Compound 2-30, 3-(4-(((1S)-2-methyl-1-(4-(5-(trifluoromethyl)-1,2,4-oxadiazol-3-yl)phenyl)butyl)amino)benzamido)propanoic acid]	0.55	0.166	
CCCC[C@@H](Nc1ccc(C(=O)NCCC(=O)O)cc1)c1ccc(-c2noc(-c3ccccc3)n2)cc1 [Compound 2-36, (R)-3-(4-((1-(4-(5-phenyl-1,2,4-oxadiazol-3-yl)phenyl)pentyl)amino)benzamido)propanoic acid]	0.338	0.199	
CCCC[C@H](Nc1ccc(C(=O)NCCC(=O)OCC)cc1)c1ccc(-c2noc(-c3ccccn3)n2)cc1 [Compound 2-37, ethyl (S)-3-(4-((1-(4-(5-(pyridin-2-yl)-1,2,4-oxadiazol-3-yl)phenyl)pentyl)amino)benzamido)propanoate]	0.0897	1.1	
CCCC[C@H](Nc1ccc(C(=O)NCCC(=O)O)cc1)c1ccc(-c2noc(-c3ccccn3)n2)cc1 [Compound 2-38, (S)-3-(4-((1-(4-(5-(pyridin-2-yl)-1,2,4-oxadiazol-3-yl)phenyl)pentyl)amino)benzamido)propanoic acid]	0.686	0.226	
CCCC[C@@H](Nc1ccc(C(=O)NCCC(=O)OCC)cc1)c1ccc(-c2noc(-c3ccccn3)n2)cc1 [Compound 2-39, ethyl (R)-3-(4-((1-(4-(5-(pyridin-2-yl)-1,2,4-oxadiazol-3-yl)phenyl)pentyl)amino)benzamido)propanoate]	0.672	> 30	
CCCC[C@@H](Nc1ccc(C(=O)NCCC(=O)O)cc1)c1ccc(-c2noc(-c3ccccn3)n2)cc1 [Compound 2-40, (R)-3-(4-((1-(4-(5-(pyridin-2-yl)-1,2,4-oxadiazol-3-yl)phenyl)pentyl)amino)benzamido)propanoic acid]	0.138	1.02	

Further lines, results first:

IC50 (glucagon receptor (GCGR)) [µM]	IC50 (GCGR) [µM]	inhibition (GCGR) [%]	Compound
0.0467	0.83		CCOC(=O)CCNC(=O)c1ccc(N[C@H](c2ccc(-c3noc(-c4ccccc4)n3)cc2)C(C)CC)cc1 (stereo partly drawn) [Compound 2-18, ethyl 3-(4-(((1S)-2-methyl-(4-(5-phenyl-1,2,4-oxadiazol-3-yl)phenyl)butyl)amino)benzamido)propanoate]
0.338	0.217		CCOC(=O)CCNC(=O)c1ccc(N[C@@H](c2ccc(-c3noc(-c4ccccc4)n3)cc2)C(C)CC)cc1 (stereo partly drawn) [Compound 2-20, ethyl 3-(4-(((1R)-2-methyl-1-(4-(5-phenyl-1,2,4-oxadiazol-3-yl)phenyl)butyl)amino)benzamido)propanoate]
0.569	0.085		CCC(C)[C@@H](Nc1ccc(C(=O)NCCC(=O)O)cc1)c1ccc(-c2noc(-c3ccccc3)n2)cc1 (stereo partly drawn) [Compound 2-21, 3-(4-(((1R)-2-methyl-1-(4-(5-phenyl-1,2,4-oxadiazol-3-yl)phenyl)butyl)amino)benzamido)propanoic acid]
0.245	0.673		CCOC(=O)CCNC(=O)c1ccc(N[C@@H](c2ccc(-c3noc(-c4ccccc4)n3)cc2)C(C)C)cc1 [Compound 2-22, ethyl (R)-3-(4-((2-methyl-1-(4-(5-phenyl-1,2,4-oxadiazol-3-yl)phenyl)propyl)amino)benzamido)propanoate]
0.061	0.634		CCOC(=O)CCNC(=O)c1ccc(N[C@H](c2ccc(-c3noc(-c4ccccc4)n3)cc2)C(C)C)cc1 [Compound 2-27, ethyl (S)-3-(4-((2-methyl-1-(4-(5-phenyl-1,2,4-oxadiazol-3-yl)phenyl)propyl)amino)benzamido)propanoate]
0.097	0.204		COC(=O)CCNC(=O)c1ccc(NC(c2ccc(-c3noc(-c4ccccc4)n3)cc2)C(C)C)cc1 (stereo not shown) [Compound 2-31, methyl 3-(4-((2-methyl-1-(4-(5-phenyl-1,2,4-oxadiazol-3-yl)phenyl)propyl)amino)benzamido)propanoate]
0.147	0.616		CCCCC(Nc1ccc(C(=O)NCCC(=O)OC)cc1)c1ccc(-c2noc(-c3ccccc3)n2)cc1 (stereo not shown) [Compound 2-32, methyl 3-(4-((1-(4-(5-phenyl-1,2,4-oxadiazol-3-yl)phenyl)pentyl)amino)benzamido)propanoate]
0.283	1.04		CCCC[C@H](Nc1ccc(C(=O)NCCC(=O)OCC)cc1)c1ccc(-c2noc(-c3ccccc3)n2)cc1 [Compound 2-33, ethyl (S)-3-(4-((1-(4-(5-phenyl-1,2,4-oxadiazol-3-yl)phenyl)pentyl)amino)benzamido)propanoate]
0.852	0.04		CCCC[C@@H](Nc1ccc(C(=O)NCCC(=O)OCC)cc1)c1ccc(-c2noc(-c3ccccc3)n2)cc1 [Compound 2-35, ethyl (R)-3-(4-((1-(4-(5-phenyl-1,2,4-oxadiazol-3-yl)phenyl)pentyl)amino)benzamido)propanoate]
0.0711	0.389		CCOC(=O)CCNC(=O)c1ccc(N[C@@H](CC(C)C)c2ccc(-c3noc(-c4ccccc4)n3)cc2)cc1 [Compound 2-41, ethyl (S)-3-(4-((3-methyl-1-(4-(5-phenyl-1,2,4-oxadiazol-3-yl)phenyl)butyl)amino)benzamido)propanoate]
0.248	0.042		CCOC(=O)CCNC(=O)c1ccc(N[C@H](CC(C)C)c2ccc(-c3noc(-c4ccccc4)n3)cc2)cc1 [Compound 2-42, ethyl (R)-3-(4-((3-methyl-1-(4-(5-phenyl-1,2,4-oxadiazol-3-yl)phenyl)butyl)amino)benzamido)propanoate]
0.391	> 30		CC(C)C[C@H](Nc1ccc(C(=O)NCCC(=O)O)cc1)c1ccc(-c2noc(-c3ccccc3)n2)cc1 [Compound 2-43, (S)-3-(4-((3-methyl-1-(4-(5-phenyl-1,2,4-oxadiazol-3-yl)phenyl)butyl)amino)benzamido)propanoic acid]
0.334	0.199		CC(C)C[C@@H](Nc1ccc(C(=O)NCCC(=O)O)cc1)c1ccc(-c2noc(-c3ccccc3)n2)cc1 [Compound 2-44, (R)-3-(4-((3-methyl-1-(4-(5-phenyl-1,254-oxadiazol-3-yl)phenyl)butyl)amino)benzamido)propanoic acid]
